The target of test [1] is T1, Sodium-dependent serotonin transporter (Homo sapiens, UniProt P31645). Format: cell-based, JAR.
Target sequence in this assay (P31645 whole entry): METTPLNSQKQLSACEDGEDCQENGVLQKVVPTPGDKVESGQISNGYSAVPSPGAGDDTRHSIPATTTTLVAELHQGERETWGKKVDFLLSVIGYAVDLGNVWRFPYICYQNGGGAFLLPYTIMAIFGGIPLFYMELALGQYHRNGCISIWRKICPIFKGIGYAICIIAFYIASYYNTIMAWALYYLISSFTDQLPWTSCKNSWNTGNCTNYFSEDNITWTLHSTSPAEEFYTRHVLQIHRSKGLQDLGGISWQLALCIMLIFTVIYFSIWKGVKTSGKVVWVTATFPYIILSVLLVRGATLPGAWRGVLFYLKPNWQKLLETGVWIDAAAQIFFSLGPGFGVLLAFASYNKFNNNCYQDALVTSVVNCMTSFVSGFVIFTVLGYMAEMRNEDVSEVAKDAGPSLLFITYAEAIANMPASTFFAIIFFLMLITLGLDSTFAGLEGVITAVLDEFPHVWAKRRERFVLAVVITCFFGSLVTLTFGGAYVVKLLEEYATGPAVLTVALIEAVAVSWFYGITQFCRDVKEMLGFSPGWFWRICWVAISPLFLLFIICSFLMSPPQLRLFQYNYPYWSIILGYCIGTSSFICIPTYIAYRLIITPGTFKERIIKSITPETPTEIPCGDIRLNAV
The species named for test [2] is Homo sapiens. In words: Ratio of IC50 for human SERT to IC50 for human NET.
Test [3] deals with Sodium-dependent dopamine transporter (Homo sapiens) (UniProt Q01959). Kind of test: Displacement of [3H]WIN-35428 from human recombinant DAT expressed in CHO cells at 10 uM. Format: cell-based. Background: Displacement assays read how much labelled ligand stays bound in the presence of the test substance.
Chain of Sodium-dependent dopamine transporter (Homo sapiens) (Q01959 whole entry): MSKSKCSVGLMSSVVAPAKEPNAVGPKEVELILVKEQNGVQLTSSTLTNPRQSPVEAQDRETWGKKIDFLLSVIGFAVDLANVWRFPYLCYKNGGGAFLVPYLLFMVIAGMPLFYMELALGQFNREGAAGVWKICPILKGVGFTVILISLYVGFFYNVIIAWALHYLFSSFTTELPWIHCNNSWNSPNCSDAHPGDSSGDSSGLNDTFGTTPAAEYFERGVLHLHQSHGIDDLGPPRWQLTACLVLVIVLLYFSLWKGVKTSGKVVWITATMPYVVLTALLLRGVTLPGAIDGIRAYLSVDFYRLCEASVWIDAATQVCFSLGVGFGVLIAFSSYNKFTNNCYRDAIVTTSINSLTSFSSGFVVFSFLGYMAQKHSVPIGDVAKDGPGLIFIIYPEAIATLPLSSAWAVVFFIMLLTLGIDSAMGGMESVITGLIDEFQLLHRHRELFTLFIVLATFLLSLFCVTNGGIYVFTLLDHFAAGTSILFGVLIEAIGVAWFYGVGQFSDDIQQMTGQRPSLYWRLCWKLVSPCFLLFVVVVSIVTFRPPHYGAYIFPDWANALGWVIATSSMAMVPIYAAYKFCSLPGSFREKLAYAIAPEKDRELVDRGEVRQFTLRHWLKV
Test [4] deals with T2, Sodium-dependent noradrenaline transporter (Homo sapiens, UniProt P23975).
T2 sequence (P23975 whole entry): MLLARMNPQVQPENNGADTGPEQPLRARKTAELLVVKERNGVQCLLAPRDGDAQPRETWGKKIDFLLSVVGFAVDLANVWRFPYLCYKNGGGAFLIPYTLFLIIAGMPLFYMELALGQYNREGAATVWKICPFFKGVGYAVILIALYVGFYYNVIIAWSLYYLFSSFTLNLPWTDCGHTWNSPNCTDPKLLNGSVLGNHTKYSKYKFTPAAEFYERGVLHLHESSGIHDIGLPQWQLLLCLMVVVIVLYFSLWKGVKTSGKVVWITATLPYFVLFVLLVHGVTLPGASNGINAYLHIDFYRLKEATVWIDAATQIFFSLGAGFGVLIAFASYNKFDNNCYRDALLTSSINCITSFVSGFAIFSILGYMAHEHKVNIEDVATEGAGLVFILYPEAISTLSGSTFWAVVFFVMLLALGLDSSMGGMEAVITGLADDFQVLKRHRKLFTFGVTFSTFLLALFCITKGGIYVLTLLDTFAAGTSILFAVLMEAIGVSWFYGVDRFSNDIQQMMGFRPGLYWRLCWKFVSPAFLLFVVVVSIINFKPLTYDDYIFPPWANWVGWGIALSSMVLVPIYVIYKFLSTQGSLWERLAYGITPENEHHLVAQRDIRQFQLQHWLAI
In test [5] the target is T2, Sodium-dependent noradrenaline transporter. In words: Inhibition of norepinephrine uptake at human NET expressed in MDCK-Net6 cells at 1 uM. Format: cell-based.
Test [6] has as its target T1, Sodium-dependent serotonin transporter. Kind of test: Inhibition of serotonin uptake at human SERT expressed in JAR cells at 1 uM. Format: cell-based.
Target sequence in this assay (P31645 whole entry, looked up): as the sequence (P31645 whole entry) above
Test [7] shares this target. In words: Inhibition of serotonin uptake at human SERT expressed in JAR cells at 10 uM. Format: cell-based.
Target sequence in this assay (P31645 whole entry, looked up): as the sequence (P31645 whole entry) above

Results on 21 molecules are retold here after ChEMBL document CHEMBL1152153, “Synthesis and activity of novel 1- or 3-(3-amino-1-phenyl propyl)-1,3-dihydro-2H-benzimidazol-2-ones as selective norepinephrine reuptake inhibitors” (Bioorg Med Chem Lett, 2008).

As usually defined, the IC50 is the midpoint of a concentration-inhibition curve. Low values mean greater potency, high ones weaker potency. What is called inhibition is the relative decrease from the control value, in per cent.

In the case of `CCCn1c(=O)n([C@H](CCNC)c2ccccc2)c2ccccc21`, the IC50 was determined as 3100 nM in test [1] and 32 nM in test [4]. Also, the Ratio IC50 in test [2] came out at 97. In addition, the inhibition in test [3] was 3%.
For `CNCCC(c1ccccc1)n1ccc2ccccc21` (centres undefined), in test [2], the Ratio IC50 came out at 7.
For the molecule `CCn1c(=O)n([C@H](CCN)c2ccccc2)c2ccccc21`, in test [5], the inhibition came to 51%.
Consider `CNCC[C@@H](c1ccccc1)n1c(=O)n(C(C)C)c2cccc(F)c21`, for which the IC50 came out at 1410 nM in test [1] and 1050 nM in test [4]. The inhibition in test [3] came to 31%.
As for `CNCC[C@H](c1ccccc1)n1c(=O)n(-c2ccccc2F)c2cccc(F)c21`, the results for the IC50 in test [1] and in test [4] were 483 nM and 6 nM, respectively. For the same molecule, the Ratio IC50 in test [2] came out at 80.
In the case of `CNCC[C@@H](c1ccccc1)n1c(=O)n(C(C)C)c2ccccc21`, in test [5], the inhibition was 21%.
`CNCC[C@H](c1ccccc1)n1c(=O)n(C(C)C)c2ccccc21`: the inhibition in test [6] is 2%; in test [7], 53%; in test [3] it was 11%. In addition, the Ratio IC50 in test [2] is 450. In addition, in test [4], inhibition was half-maximal at 22 nM (IC50).
`CCNCC[C@H](c1ccccc1)n1c(=O)n(CC)c2ccccc21` registered an inhibition in test [5] of 27%.
Take `CCn1c(=O)n([C@H](CCNC)c2ccccc2)c2ccccc21`: the IC50 worked out at 4310 nM in test [1] and 44 nM in test [4]. Moreover, in test [2], the Ratio IC50 was determined as 98. Moreover, the inhibition in test [3] amounted to 4%.
Regarding `CNCC[C@H](c1ccccc1)n1c(=O)n(C2CCCCC2)c2ccccc21`, the inhibition in test [6] is 20%; in test [3], 24%. The IC50 in test [4] amounted to 311 nM.
As to `CNCC[C@H](c1ccccc1)n1c(=O)n(C2CC2)c2ccccc21`, the IC50 stood at 4570 nM in test [1] and 166 nM in test [4]. In test [2], the Ratio IC50 is 28. Besides, the inhibition in test [3] was found to be 7%.
As to `CCCn1c(=O)n([C@@H](CCNC)c2ccccc2)c2ccccc21`, the IC50 turned out to be 166 nM in test [1] and 627 nM in test [4]. Besides, the inhibition in test [3] was determined as 5%.
Molecule `CNCC[C@@H](c1ccccc1)n1c(=O)n(C2CC2)c2ccccc21` displayed an inhibition in test [5] of 25%.
For the molecule `CNCC[C@H](c1ccccc1)n1c(=O)n(C)c2ccccc21`, the inhibition was 10% in test [6] and 12% in test [3]. Further, in test [4], the IC50 was found to be 463 nM.
For `CCn1c(=O)n([C@H](CCNC)c2cccc(F)c2)c2c(F)cccc21` the same measures were 28%, 14% and 19 nM.
Turning to `CNCC[C@H](c1ccccc1)n1c(=O)n(C(C)C)c2cccc(F)c21`, the values for the IC50 in test [1] and in test [4] were 1210 nM and 30 nM, respectively. Further, in test [2], the Ratio IC50 worked out at 40. Besides, in test [3], the inhibition is 5%.
Consider `CNCC[C@H](c1ccccc1)n1c(=O)n(C2CCCC2)c2ccccc21`, for which the inhibition amounted to 16% in test [6] and 22% in test [3]. In test [4], this molecule had an IC50 of 201 nM.
`CC(C)n1c(=O)n([C@H](CCN(C)C)c2ccccc2)c2c(F)cccc21` gave an inhibition in test [5] of 27%.
Regarding `CNCC[C@H](c1ccccc1)n1c(=O)n(-c2ccccc2)c2ccccc21`, the values for the IC50 in test [1] and in test [4] were 3000 nM and 9 nM, respectively. For the same molecule, in test [2], the Ratio IC50 was determined as 333. Besides, in test [3], the inhibition is 33%.
For `CNCC[C@@H](c1ccccc1)n1c(=O)n(-c2ccccc2)c2ccccc21`, the IC50 in test [1] was found to be 273 nM; in test [4], 215 nM. Also, the inhibition in test [3] worked out at 23%.
Turning to `CNCC[C@H](c1ccccc1)n1c(=O)sc2ccccc21`, the IC50 in test [1] stood at 1910 nM; in test [4], 121 nM. The Ratio IC50 in test [2] was 16. In addition, the inhibition in test [3] was 36%.
